Data: patent US20100292185A1, “BETA-LACTAMASE INHIBITORS” (priority 2009, published 2010)
Structures can show the parent of a compound that is named as a salt. Where two headings read alike, the source gives them in different places.

What was measured:
[1] = target: T1, SHV-5 β-lactamase (Klebsiella pneumoniae, UniProt P0A3M1); assay: β-lactamase enzyme inhibition assay (nitrocefin substrate), SHV-5; assay type: biochemical
T1 construct: expressed as native untagged proteins; made in house; host or cells: E. coli BL21(DE3)
T1 sequence (P0A3M1 22-286): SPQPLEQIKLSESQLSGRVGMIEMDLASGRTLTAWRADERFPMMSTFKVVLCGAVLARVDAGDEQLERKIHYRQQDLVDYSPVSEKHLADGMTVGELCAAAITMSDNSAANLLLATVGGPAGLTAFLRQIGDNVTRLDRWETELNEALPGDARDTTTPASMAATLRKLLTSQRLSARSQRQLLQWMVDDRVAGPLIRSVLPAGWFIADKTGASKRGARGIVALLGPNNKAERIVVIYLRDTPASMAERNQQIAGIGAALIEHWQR
Summary of the method: (§1)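 Native untagged enzymes were expressed in E. coli BL21(DE3) and purified by cation exchange and gel filtration. Compounds (100–0.005 μM in PBS pH 7.0) were preincubated with enzyme for 10 min at 37 °C, then 100 μM nitrocefin (final) was added. IC50 was derived from the maximum hydrolysis rate at 486 nm, read kinetically for 10 min, relative to uninhibited controls.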

[2] = target: T2, CTX-M15 β-lactamase (Escherichia coli, UniProt Q9EXV5); assay: β-lactamase enzyme inhibition assay (nitrocefin substrate), CTXM-15; assay type: biochemical
T2 construct: expressed as native untagged proteins; made in house; host or cells: E. coli BL21(DE3)
T2 sequence (Q9EXV5 entry or part of it): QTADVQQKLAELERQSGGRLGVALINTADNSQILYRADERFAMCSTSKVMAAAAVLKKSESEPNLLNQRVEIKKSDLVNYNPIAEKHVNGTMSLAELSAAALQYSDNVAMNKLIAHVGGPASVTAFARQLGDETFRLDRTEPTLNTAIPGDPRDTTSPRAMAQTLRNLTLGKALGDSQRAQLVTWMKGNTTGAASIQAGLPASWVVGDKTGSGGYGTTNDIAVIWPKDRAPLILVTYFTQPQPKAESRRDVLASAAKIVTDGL
Summary of the method: as §1

[3] = target: T3, p99 AmpC β-lactamase (Enterobacter cloacae, UniProt P05364); assay: β-lactamase enzyme inhibition assay (nitrocefin substrate), P99 AmpC; assay type: biochemical
T3 construct: expressed as native untagged proteins; made in house; host or cells: E. coli BL21(DE3)
T3 sequence (P05364 21-381): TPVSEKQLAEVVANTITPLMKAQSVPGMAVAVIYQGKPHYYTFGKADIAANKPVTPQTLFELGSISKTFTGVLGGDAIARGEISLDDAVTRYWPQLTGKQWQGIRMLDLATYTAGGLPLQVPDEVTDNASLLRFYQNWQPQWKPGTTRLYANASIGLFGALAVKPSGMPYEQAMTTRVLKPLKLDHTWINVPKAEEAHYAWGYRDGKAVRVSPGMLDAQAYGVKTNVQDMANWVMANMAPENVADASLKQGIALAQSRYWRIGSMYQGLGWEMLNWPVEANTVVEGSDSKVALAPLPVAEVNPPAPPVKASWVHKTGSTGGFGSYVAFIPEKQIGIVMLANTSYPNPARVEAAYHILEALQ
Summary of the method: as §1

[4] = target: T4, KPC-2 β-lactamase (Klebsiella pneumoniae, UniProt Q9F663); assay: β-lactamase enzyme inhibition assay (nitrocefin substrate), KPC-2; assay type: biochemical
T4 construct: expressed as native untagged proteins; made in house; host or cells: E. coli BL21(DE3)
T4 sequence (Q9F663 25-293 limits assumed): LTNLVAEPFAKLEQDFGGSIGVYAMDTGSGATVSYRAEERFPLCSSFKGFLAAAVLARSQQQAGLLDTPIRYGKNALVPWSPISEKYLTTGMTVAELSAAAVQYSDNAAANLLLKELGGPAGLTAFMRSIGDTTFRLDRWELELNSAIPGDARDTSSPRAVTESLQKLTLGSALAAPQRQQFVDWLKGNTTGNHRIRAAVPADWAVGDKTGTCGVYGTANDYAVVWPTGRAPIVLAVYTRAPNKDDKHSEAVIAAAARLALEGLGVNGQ
Summary of the method: as §1

[5] = target: T5, VIM-2 metallo β-lactamase (Pseudomonas aeruginosa, UniProt Q9K2N0); assay: β-lactamase enzyme inhibition assay (nitrocefin substrate), VIM-2; assay type: biochemical; conditions: nitrocefin 100 μM, 37° C., PBS pH 7.0; read-out: VIM-2 IC50
T5 construct: made in house
Procedure: Isolation of β-lactamases. For SHV-5, p99 AmpC, KPC-2 and CTX-M15 β-lactamases, E. coli BL21(DE3) bacterial cells carrying expression plasmids (expressed as native untagged proteins) for the individual β-lactamases were grown in 1 L of Superbroth (Teknova Inc. Hollister, Calif.) supplemented with 100 μg/ml kanamycin and 1×5052 (0.5% glycerol, 0.05% glucose and 0.2% α-lactose) at 35° C. for 18-20 hours. Cells were harvested by centrifugation (4,000×g, 4° C., 20 min), and resuspended in 50 ml of 10 mM HEPES pH 7.5 (1/20 of the initial volume). The cells were lysed by sonication (5 pulses of 45 seconds) at 45 W on ice. The lysates were clarified by centrifugation at 10,000×g for 40 minutes at 4° C. Samples were diluted 5-fold in 50 mM sodium acetate pH 5.0, stored overnight at 4° C., after which they were centrifuged at 10,000×g for 30 minutes to clarify, and filtered through 0.45 μm filters. The samples were loaded onto a 5 ml Capto S sepharose cation exchange column (GE Healthcare) pre-equilibrated with 50 mM sodium acetate pH 5.0. The column was washed with 5 column volumes of 50 mM sodium acetate pH 5.0 to wash out unbound protein and a linear gradient of NaCl (0 to 500 mM) was used to elute the protein (over 16 CV) from the column. Fractions were assayed for β-lactamase activity using Centa (Calbiochem, Gibbstown, N.J.) as a reporter β-lactamase substrate for activity in the isolated fractions. Active fractions were pooled, concentrated and further purified by gel filtration chromatography on a Superdex 75 prep grade gel filtration column (GE Healthcare, Piscataway, N.J.) pre-equilibrated in 50 mM Hepes pH 7.5, 150 mM NaCl. Active fractions were pooled concentrated, quantitated by BCA protein determination (Thermo Scientific, Rockford, Ill.), and frozen at −80° C. in 20% glycerol until use.
For VIM-2 metallo (β-lactamase, the procedure was identical with the following exceptions: 1) the protein was not pH adjusted to pH 5 with 50 mM sodium acetate, 2) the chromatography step was changed to a 5 ml Q sepharose anion exchange column pre-equilibrated with 50 mM Hepes pH 7.5, and 3) elution of the protein was achieved by a linear gradient of NaCl (0-600 mM). Finally, the VIM-2 purification required a second run (3rd step) on the Q sepharose anion exchange column to achieve acceptable purity (>90%).
(§2) β-lactamase Inhibition. To determine the level of inhibition of β-lactamase enzymes, compounds were diluted in PBS at pH 7.0 to yield concentrations between 100 and 0.005 μM in microtiter plates. An equal volume of diluted enzyme stock was added, and the plates were incubated at 37° C. for 10 min. Nitrocefin solution was then dispensed as substrate into each well at a final concentration of 100 μM, and the plates were immediately read with the kinetic program at 486 nm for 10 min on the SPECTRAMAX® Plus^384 (high-throughput microplate spectrophotometer; Molecular Devices Corp., Sunnyvale, Calif.). Maximum rates of metabolism were then compared to those in control wells (without inhibitors), and percentages of enzyme inhibition were calculated for each concentration of inhibitor. The concentration of inhibitor needed to reduce the initial rate of hydrolysis of substrate by 50% (IC50) was calculated as the residual activity of β-lactamase at 486 nm using the SoftMax Pro 5.0 software (Molecular Devices Corp.).
Using the methodology described above, examples of the current invention were evaluated for their ability to inhibit β-lactamase enzymes. The results of these assays are summarized in Table 2 for representative enzymes across different subtypes (note SHV-5 and CTXM-15 exemplify different subclasses of Ambler Class A Extended Spectrum Beta Lactamases, KPC-2 exemplifies Class A carbapenemases, P99 represents chromosomal Class C AmpC, VIM-2 exemplifies subclass B1 of metallo-β-lactamases, and OXA-23 represents chromosome-encoded Class D oxacillin-hydrolyzing β-lactamases), NT=not tested.

[6] = target: T6, OXA-23 β-lactamase (Acinetobacter baumannii, UniProt Q9L4P2); assay: β-lactamase enzyme inhibition assay (nitrocefin substrate), OXA-23 crude extract; assay type: biochemical; conditions: nitrocefin 100 μM, 37° C., PBS pH 7.0; read-out: OXA-23 IC50
T6 construct: crude β-lactamase extracts were prepared from 20 ml overnight cultures; endogenous in cells; host or cells: Acinetobacter baumannii cells containing OXA-23 (crude freeze-thaw extract)
T6 sequence (Q9L4P2 18-273): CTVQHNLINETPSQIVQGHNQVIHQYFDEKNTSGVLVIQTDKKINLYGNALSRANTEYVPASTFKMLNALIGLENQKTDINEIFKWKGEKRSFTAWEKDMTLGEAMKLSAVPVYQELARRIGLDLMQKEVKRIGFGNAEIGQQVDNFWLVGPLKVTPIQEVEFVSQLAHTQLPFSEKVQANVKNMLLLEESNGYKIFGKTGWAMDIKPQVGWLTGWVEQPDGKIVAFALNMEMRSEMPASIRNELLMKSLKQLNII
Procedure: For OXA-23 β-lactamase, crude β-lactamase extracts were prepared from 20 ml overnight cultures with shaking. Acenitobacter baumanni cells containing OXA-23 were further diluted 10-fold and grown to mid-log phase (OD at 600 nm, 0.5-0.8) in Mueller-Hinton II (MH-II) broth at 37° C. The cells were pelleted at 5000 g, washed and resuspended in 2 mL PBS pH 7.0. The β-lactamases were extracted by four cycles of freezing and thawing followed by centrifugation. β-lactamase activity in the extracts was measured with the chromogenic cephalosporin nitrocefin. The amount of protein in each β-lactamase preparation was determined by the bicinchoninic acid (BCA) assay.
as §2

[7] = test system: E. coli expressing the Class A ESBL SHV-5; assay: In vitro antibacterial assay of β-lactamase inhibition (broth microdilution MIC), E. coli SHV-5; assay type: cell-based
Summary of the method: (§3)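 Each strain, maintained under 50 μg/mL ampicillin selection, was exposed to twofold compound dilutions (final range 8 μg/mL to 0.015 μg/ml) combined with a β-lactam antibiotic in cation-adjusted Mueller Hinton broth. The MIC was judged visually following overnight (16-20 h) incubation at 37° C.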

[8] = test system: K. pneumoniae expressing the Class A Extended Spectrum Beta-Lactamase (ESBL) CTX-M-15; assay: In vitro antibacterial assay of β-lactamase inhibition (broth microdilution MIC), K. pneumoniae CTX-M-15; assay type: cell-based
Summary of the method: as §3

[9] = test system: E. cloacae expressing the Class C P99+; assay: In vitro antibacterial assay of β-lactamase inhibition (broth microdilution MIC), E. cloacae P99+; assay type: cell-based
Summary of the method: as §3

[10] = test system: K. pneumoniae expressing the Class A carbapenemase KPC-2; assay: microbe, parasite or virus in culture; assay type: cell-based
Summary of the method: as §3

[11] = in presence of Ceftazidime 8 μg/ml (Examples 1-56)
[12] = nitrocefin 100 μM, 37° C., PBS pH 7.0, read-out: P99 AmpC IC50
[13] = in presence of Piperacillin 16 μg/ml (Examples 57-65)

| Compound | IC50 [1] [nM] | IC50 [2] [nM] | IC50 [3] [nM] | IC50 [4] [nM] | IC50 [5] [nM] | IC50 [6] [nM] | MIC of example compound, E. coli SHV-5 [7, 11] [µg/mL] | MIC of example compound, K. pneumoniae CTX-M-15 [8, 11] [µg/mL] | MIC of example compound, E. cloacae P99+ [9, 11] [µg/mL] | MIC of example compound, K. pneumoniae KPC-2 [10, 11] [µg/mL] | IC50 [3, 12] [nM] | MIC of example compound, E. coli SHV-5 [7, 13] [µg/mL] | MIC of example compound, K. pneumoniae CTX-M-15 [8, 13] [µg/mL] | MIC of example compound, E. cloacae P99+ [9, 13] [µg/mL] | MIC of example compound, K. pneumoniae KPC-2 [10, 13] [µg/mL] |
| --- | --- | --- | --- | --- | --- | --- | --- | --- | --- | --- | --- | --- | --- | --- | --- |
| O=C(N[C@@H](Cc1cccc(C(=O)O)c1O)B(O)O)c1ccc(CN2CCNCC2)cc1 [Example 5, 2(R)-3-[2-(4-(1-piperazinylmethyl)benzoylamino)-2-borono-ethyl]-2-hydroxy-benzoic acid Hydrochloride] | > 1000 | 6 | 1 | 1 | 510 | > 1000 | 4 | 1 | 2 | 0.03 | – | – | – | – | – |
| CCNCc1ccc(C(=O)N[C@@H](Cc2cccc(C(=O)O)c2O)B(O)O)cc1.Cl [Example 6, 2(R)-3-[2-(4-(N-ethylaminomethyl)benzoylamino)-2-borono-ethyl]-2-hydroxy-benzoic acid Hydrochloride] | > 1000 | 4 | – | 4 | 57 | > 1000 | 4 | 1 | 0.25 | 0.03 | 1 | – | – | – | – |
| Cl.Nc1ccc(C(=O)N[C@@H](Cc2cccc(C(=O)O)c2O)B(O)O)cn1 [Example 7, (2R)-3-{2-[(2-Amino-pyridine-5-carbonyl)-amino]-2-borono-ethyl}-2-hydroxy-benzoic acid formate salt] | 320 | 1 | – | 4 | 820 | 508 | 1 | 0.12 | 0.12 | 0.03 | 1 | – | – | – | – |
| Cl.Nc1cc(C(=O)N[C@@H](Cc2cccc(C(=O)O)c2O)B(O)O)ccn1 [Example 8, (2R)-3-{2-[(2-Amino-pyridine-4-carbonyl)-amino]-2-borono-ethyl}-2-hydroxy-benzoic acid] | 29 | 28 | – | 5 | 700 | 144 | 1 | 0.5 | 0.5 | 0.06 | 2 | – | – | – | – |
| O=C(Cc1ccc(CN2CCCC2)cc1)N[C@@H](Cc1cccc(C(=O)O)c1O)B(O)O [Example 38, (1R)-[2-(4-pyrrolin-1-ylmethyl-phenyl)-acetylamino]-(3-carboxy-2-hydroxy)benzyl-methylboronic acid formate] | 5 | 3 | – | 6 | 858 | 234 | 0.5 | 0.25 | 0.5 | 0.03 | 9 | – | – | – | – |
| O=C(Cc1ccc(C[n+]2ccccc2)cc1)N[C@@H](Cc1cccc(C(=O)O)c1O)B(O)O [Example 42, formate] | 2 | 4 | 4 | 10 | > 1000 | 153 | – | – | – | – | – | – | – | – | – |
| NCc1ccc(/C(=N/O)C(=O)N[C@@H](Cc2cccc(C(=O)O)c2O)B(O)O)cc1 [Example 53, 3-{2(R)-[2-(4-aminomethyl-phenyl)-2-hydroxyimino-acetylamino]-2-borono-ethyl}-2-hydroxy-benzoic acid hydrochloride] | 29 | 12 | – | 39 | 312 | 350 | – | – | – | – | – | – | – | – | – |
| Cl.NCc1cc(CC(=O)N[C@@H](Cc2cccc(C(=O)O)c2O)B(O)O)ccn1 [Example 63, (2R)-3-{2-[(2-Aminomethyl-pyridin-4-yl-acetyl)-amino]-2-borono-ethyl}-2-hydroxy-benzoic acid hydrochloride] | 8 | 10 | – | 24 | 621 | 534 | – | – | – | – | 9 | 0.06 | >16 | 4 | 0.125 |
